According to US11825838B2, “Tricyclic carboxamides for controlling arthropods” (Bayer CropScience Aktiengesellschaft, priority 2017, dated 2023):

Tests used:
Format in all cases: in vivo
Spodoptera frugiperda = Spodoptera frugiperda spray test (SPODFR); conditions: application rate 100 g/ha, spray, after 7 days; for pest or weed control at 100 g/ha: Spodoptera frugiperda, 168 h, read-out: efficacy
Protocol: Spodoptera frugiperda—Spray Test
(§1) To produce a suitable active ingredient formulation, 1 part by weight of active ingredient is dissolved with the specified parts by weight of solvent and made up to the desired concentration with water containing an emulsifier concentration of 1000 ppm. To produce further test concentrations, the formulation is diluted with emulsifier-containing water.
Leaf discs of maize (Zea mays) are sprayed with an active ingredient formulation of the desired concentration and, after drying, populated with caterpillars of the armyworm (Spodoptera frugiperda).
After 7 days, the efficacy in % is determined. 100% means that all the caterpillars have been killed; 0% means that no caterpillar has been killed.
Spodoptera frugiperda—Spray Test (SPODFR)
as §1, with “compound” for “ingredient”
Leaf discs of maize (Zea mays) are sprayed with an active compound formulation of the desired concentration and, after drying, populated with caterpillars of the armyworm (Spodoptera frugiperda).
After the desired time, the efficacy in % is determined. 100% means that all the caterpillars have been killed; 0% means that no caterpillar has been killed.

Boophilus microplus = Boophilus microplus injection test; conditions: application rate 20 μg/animal, assessed after 7 days by laying of fertile eggs
Protocol: Boophilus microplus—Injection Test
(§2) Solvent: dimethyl sulfoxide
To produce a suitable active compound preparation, 10 mg of active compound are mixed with 0.5 ml of solvent and the concentrate is diluted to the desired concentration with solvent.
1 μl of the active ingredient solution is injected into the abdomen of 5 engorged adult female cattle ticks (Boophilus microplus). The animals are transferred into dishes and kept in a climate-controlled room.
Efficacy is assessed after 7 days by laying of fertile eggs. Eggs which are not visibly fertile are stored in a climate-controlled cabinet until the larvae hatch after about 42 days. An efficacy of 100% means that none of the ticks has laid any fertile eggs; 0% means that all the eggs are fertile.

Phaedon cochleariae = Phaedon cochleariae spray test (PHAECO); conditions: application rate 100 g/ha, spray, after 7 days; for pest or weed control at 100 g/ha: Phaedon cochleariae, 168 h, read-out: efficacy
Protocol: Phaedon cochleariae—Spray Test
as §1
After 7 days, the efficacy in % is determined. 100% means that all the beetle larvae have been killed; 0% means that no beetle larvae have been killed.
Phaedon cochleariae—Spray Test (PHAECO)
as §1, with “compound” for “ingredient”
Discs of Chinese cabbage leaves (Brassica pekinensis) are sprayed with an active compound formulation of the desired concentration and, after drying, populated with larvae of the mustard beetle (Phaedon cochleariae).
After the desired time, the efficacy in % is determined. 100% means that all the beetle larvae have been killed; 0% means that no beetle larvae have been killed.

[1] = system: Anopheles gambiae strain RSPH (homozygot kdr); test: Anopheles test (ANPHGB surface treatment); conditions: application rate 100 mg/m^2, glazed tile, exposure 30 minutes, 24 hours after contact, read-out: efficacy (mortality)
Protocol: Anopheles Test (ANPHGB Surface Treatment)
(§3) Solvent: acetone+2000 ppm rapeseed oil methyl ester (RME)
(§4) To produce a suitable active compound formulation, the active compound is dissolved in the solvent (2 mg/ml). The active compound formulation is pipetted onto a glazed tile and, after it has dried off, adult mosquitoes of the species Anopheles gambiae strain RSPH (homozygot kdr) are placed onto the treated tile. The exposure time is 30 minutes.
(§5) 24 hours after contact with the treated surface, mortality in % is determined. 100% means that all mosquitoes have been killed; 0% means that none of the mosquitoes have been killed.

Ctenocephalides felis [2] = test: Ctenocephalides felis oral test; conditions: application rate 100 ppm in citrated cattle blood, after 2 days
Protocol: Ctenocephalides felis—Oral Test
as §2
To produce a suitable active ingredient formulation, 10 mg of active ingredient are mixed with 0.5 ml of dimethyl sulfoxide. Dilution with citrated cattle blood gives the desired concentration.
About 20 unfed adult cat fleas (Ctenocephalides felis) are placed into a chamber which is closed at the top and bottom with gauze. A metal cylinder whose bottom end is closed with parafilm is placed onto the chamber. The cylinder contains the blood/active ingredient formulation, which can be imbibed by the fleas through the parafilm membrane.
After 2 days, the rate of extermination in % is determined. 100% means that all of the fleas have been killed; 0% means that none of the fleas have been killed.

Rhipicephalus sanguineus = Rhipicephalus sanguineus in vitro contact test with adult brown dog ticks; conditions: application rate 5 μg/cm^2 (=500 g/ha), after 48 h, adult dog ticks dead or moribund
Protocol: Rhipicephalus sanguineus—In Vitro Contact Tests with Adult Brown Dog Ticks
(§6) For the coating of the test tubes, 9 mg of active ingredient are first dissolved in 1 ml of acetone p.a. and then diluted to the desired concentration with acetone p.a. 250 μl of the solution are distributed homogeneously on the inner walls and the base of a 25 ml glass tube by turning and rocking on an orbital shaker (rocking rotation at 30 rpm for 2 h). With 900 ppm of active ingredient solution and internal surface area 44.7 cm^2, given homogeneous distribution, an area-based dose of 5 μg/cm^2 is achieved.
After the solvent has evaporated off, the tubes are populated with 5-10 adult dog ticks (Rhipicephalus sanguineus), sealed with a perforated plastic lid and incubated in a horizontal position in the dark at room temperature and ambient humidity. After 48 h, efficacy is determined. To this end, the ticks are knocked to the base of the tube and incubated on a hotplate at 45-50° C. for not more than 5 min. Ticks which remain motionless on the base or move in such an uncoordinated manner that they are unable to deliberately avoid the heat by climbing upwards are considered to be dead or moribund.
An efficacy of 100% means that all the ticks were dead or moribund. 0% efficacy means that none of the ticks were harmed.

Lucilia cuprina = Lucilia cuprina test; conditions: application rate 100 ppm, L1 larvae, after 2 days
Protocol: as §2
(§7) To produce a suitable active ingredient formulation, 10 mg of active ingredient are mixed with 0.5 ml of dimethyl sulfoxide, and the concentrate is diluted with water to the desired concentration.
About 20 L1 larvae of the Australian sheep blowfly (Lucilia cuprina) are transferred into a test vessel containing minced horsemeat and the active compound preparation of the desired concentration.
After 2 days, the rate of extermination in % is determined. 100% means that all the larvae have been killed; 0% means that no larvae have been killed.

[3] = system: Aedes aegypti strain MONHEIM; test: Aedes test (AEDSAE surface treatment); conditions: application rate 100 mg/m^2, glazed tile, exposure 30 minutes, 24 hours after contact, read-out: efficacy (mortality)
Protocol: Aedes Test (AEDSAE Surface Treatment)
as §3
as §4, with “Aedes aegypti” for “Anopheles gambiae”, “MONHEIM” for “RSPH (homozygot kdr)”
as §5

[4] = system: Anopheles funestus strain FUMOZ-R; test: Anopheles test (ANPHFU surface treatment); conditions: application rate 100 mg/m^2, glazed tile, exposure 30 minutes, 24 hours after contact, read-out: efficacy (mortality)
Protocol: Anopheles Test (ANPHFU Surface Treatment)
as §3
as §4, with “funestus” for “gambiae”, “FUMOZ-R (Hunt et al., Med Vet Entomol. 2005 September; 19(3):271-5)” for “RSPH (homozygot kdr)”
as §5

Tetranychus urticae = Tetranychus urticae spray test, OP-resistant (TETRUR); conditions: spray, after 6 days
Protocol: Tetranychus urticae—Spray Test, OP-Resistant
as §1
Discs of bean leaves (Phaseolus vulgaris) infested with all stages of the greenhouse red spider mite (Tetranychus urticae) are sprayed with an active compound preparation of the desired concentration.
After 6 days, the efficacy in % is determined. 100% means that all the spider mites have been killed; 0% means that no spider mites have been killed.
Tetranychus urticae—Spray Test; OP-Resistant (TETRUR)
as §1, with “compound” for “ingredient”
Discs of bean leaves (Phaseolus vulgaris) infested with all stages of the greenhouse red spider mite (Tetranychus urticae) are sprayed with an active compound formulation of the desired concentration.
After the desired time, the efficacy in % is determined. 100% means that all the spider mites have been killed; 0% means that no spider mites have been killed.

Musca domestica = Musca domestica test; conditions: application rate 100 ppm, adult houseflies, after 2 days
Protocol: as §2, §7
Vessels containing a sponge treated with sugar solution and the active ingredient formulation of the desired concentration are populated with 10 adult houseflies (Musca domestica).
After 2 days, the rate of extermination in % is determined. 100% means that all of the flies have been killed; 0% means that none of the flies have been killed.

Myzus persicae [5] = test: Myzus persicae oral test; conditions: application rate 4 ppm, after 5 days
Protocol: To produce a suitable active compound preparation, 1 part by weight of active compound is dissolved with the specified amounts by weight of solvent and made up to the desired concentration with water.
50 ul of the active compound preparation are transferred to microtiter plates and made up to a final volume of 200 μl with 150 μl of IPL41 insect medium (33%+15% sugar). Then the plates are sealed with parafilm through which a mixed population of the green peach aphid (Myzus persicae), which is located in a second microtiter plate, can pierce and absorb the solution.
(§8) After 5 days, the efficacy in % is determined. 100% means that all the aphids have been killed; 0% means that no aphids have been killed.

Ctenocephalides felis [6] = test: Ctenocephalides felis in vitro contact test with adult cat fleas; conditions: application rate 5 μg/cm^2 (=500 g/ha), after 48 h, adult cat fleas dead or moribund
Protocol: Ctenocephalides felis—In Vitro Contact Tests with Adult Cat Fleas
as §6
After the solvent has evaporated off, the tubes are populated with 5-10 adult cat fleas (Ctenocephalides felis), sealed with a perforated plastic lid and incubated in a horizontal position at room temperature and ambient humidity. After 48 h, efficacy is determined. To this end, the tubes are stood upright and the fleas are knocked to the base of the tube. Fleas which remain motionless at the base or move in an uncoordinated manner are considered to be dead or moribund.
100% efficacy means that all the fleas were dead or moribund. 0% efficacy means that no fleas were harmed.

Myzus persicae [7] = test: Myzus persicae spray test (MYZUPE); conditions: application rate 100 g/ha, spray, after 5 days
Protocol: Myzus persicae—Spray Test
as §1
Discs of Chinese cabbage leaves (Brassica pekinensis) infested by all stages of the green peach aphid (Myzus persicae) are sprayed with an active compound preparation of the desired concentration.
as §8
Myzus Persicae—Spray Test (MYZUPE)
as §1, with “compound” for “ingredient”
Discs of Chinese cabbage leaves (Brassica pekinensis) infested with all stages of the green peach aphid (Myzus persicae) are sprayed with an active compound formulation of the desired concentration.
After the desired time, the efficacy in % is determined. 100% means that all the aphids have been killed; 0% means that no aphids have been killed.

Compound | pest or weed control at 100 g/ha (Spodoptera frugiperda) [%] | efficacy (Boophilus microplus) [%] | pest or weed control at 100 g/ha (Phaedon cochleariae) [%] | mortality at 100 mg/m2 [1] [%] | efficacy (rate of extermination) (Ctenocephalides felis [2]) [%] | efficacy (Rhipicephalus sanguineus) [%] | efficacy (rate of extermination) (Lucilia cuprina) [%] | mortality at 100 mg/m2 [3] [%] | mortality at 100 mg/m2 [4] [%] | efficacy (Spodoptera frugiperda) [%] | efficacy (Tetranychus urticae; application rate 20 g/ha) [%] | efficacy (Tetranychus urticae; application rate 100 g/ha) [%] | efficacy (Phaedon cochleariae) [%] | efficacy (rate of extermination) (Musca domestica) [%] | efficacy (Myzus persicae [5]) [%] | efficacy (Ctenocephalides felis [6]) [%] | efficacy (Myzus persicae [7]) [%]
Cn1cc(-c2cnn(-c3c(Cl)cc(C(F)(C(F)(F)F)C(F)(F)F)cc3Cl)c2)cc1C(=O)NC1CC1 [I-T1-3, N-cyclopropyl-4-{1-[2,6-dichloro-4-(1,1,1,2,3,3,3-heptafluoropropan-2-yl)phenyl]-1H-pyrazol-4-yl}-1-methyl-1H-pyrrole-2-carboxamide] | 100 | 100 | 100 | 80 to 100 | 100 | 100 | 100 | – | – | – | – | – | – | – | – | – | –
Cn1c(C(=O)NC2CC2)cc(-c2cnn(-c3c(Cl)cc(C(F)(C(F)(F)F)C(F)(F)F)cc3Cl)c2)c1Cl [I-T1-9, 5-chloro-N-cyclopropyl-4-{1-[2,6-dichloro-4-(1,1,1,2,3,3,3-heptafluoropropan-2-yl)phenyl]-1H-pyrazol-4-yl}-1-methyl-1H-pyrrole-2-carboxamide] | 100 | – | 100 | 80 to 100 | – | – | – | 80 to 100 | 80 to 100 | – | – | – | – | – | – | – | –
Cc1sc(-c2cnn(-c3c(Cl)cc(C(F)(C(F)(F)F)C(F)(F)F)cc3Cl)c2)cc1C(=O)NC1(C#N)CC1 [I-T1-10] | – | 100 | – | – | 100 | – | 100 | – | – | 100 | 100 | 100 | 100 | 100 | 100 | – | –
O=C(NC1CC1)c1csc(-c2cnn(-c3c(Cl)cc(C(F)(C(F)(F)F)C(F)(F)F)cc3Cl)c2)c1 [I-T1-12, N-cyclopropyl-5-{1-[2,6-dichloro-4-(1,1,1,2,3,3,3-heptafluoropropan-2-yl)phenyl]-1H-pyrazol-4-yl}thiophene-3-carboxamide] | 100 | – | 100 | – | 100 | 100 | 100 | – | – | – | – | – | – | 100 | 100 | 100 | –
N#CC1(NC(=O)c2csc(-c3cnn(-c4c(Cl)cc(C(F)(C(F)(F)F)C(F)(F)F)cc4Cl)c3)c2)CC1 [I-T1-13, N-(1-cyanocyclopropyl)-5-{1-[2,6-dichloro-4-(1,1,1,2,3,3,3-heptafluoropropan-2-yl)phenyl]-1H-pyrazol-4-yl}thiophene-3-carboxamide] | 100 | 100 | 100 | – | 100 | – | 100 | 80 to 100 | – | – | 90 | 100 | – | 100 | – | – | –
O=C(NC1CC1)c1cc(-c2cnn(-c3c(Cl)cc(C(F)(C(F)(F)F)C(F)(F)F)cc3Cl)c2)sc1Cl [I-T1-16, 2-chloro-N-cyclopropyl-5-{1-[2,6-dichloro-4-(1,1,1,2,3,3,3-heptafluoropropan-2-yl)phenyl]-1H-pyrazol-4-yl}thiophene-3-carboxamide] | 100 | – | 100 | – | – | – | – | – | – | – | 90 | 100 | – | – | 100 | – | 100
